Assay results published in patent publication US12103915B2, “TEAD inhibitors and methods of uses thereof” (Insilico Medicine IP Limited, priority 2022, dated 2024).
Like-named read-outs stand apart in the source and are kept apart here.

Tests used:
[1] = test system: NCI-H226 cells; assay: Cell growth assay (CellTiter-Glo); assay type: cell-based, human; conditions: 7 days treatment, CellTiter-Glo luminescence, read-out: H226 CTG IC50
Procedure: Example A: Cell Growth Assay
CellTiter-Glo reagent (CTG reagent, Promega, G7573).
[…] Also seeding an extra plate as Day 0 control measurement. The microplates were incubated at 37° C., 5% CO2 overnight.
Compounds were 3-fold serial diluted in DMSO and final top-concentration was […], 10 points. 0.3% DMSO as vehicle control. In addition, […] of CTG reagent was added into the extra plate and incubated at room temperature for 30 minutes and detected luminescence signals as Day 0 control by using EnVision (PerkinElmer, 2104 Mutilabel Reader).
Incubated other compounds treated plates at 37° C. for another 7 days and […] of CTG reagent was added into the plates and incubated at room temperature for 30 minutes and detected luminescence signals.
Day 0 luminescence signals were used as negative control or baseline. • Signalday0=average luminescence signals of Day 0 control cells. • Signalblank control=average luminescence signals of blank control. • SignalDMSO vehicle control=average luminescence signals of Day 7 DMSO vehicle control cells. • Signalcpds treatment=luminescence signals of Day 7 compounds treatment cells. Inhibition %=1−(Signalcpds treatment−Signalblank control)/(SignalDMSO vehicle control−Signalblank control)*100.
(Inhibitory concentration 50% (IC50) and maximum inhibition % were calculated using dose response curves.

[2] = biological target: TEAD4 (Homo sapiens, UniProt Q15561); assay: Thermal shift assay TEAD4; assay type: binding
Sequence of TEAD4 (Q15561 whole entry, species assumed): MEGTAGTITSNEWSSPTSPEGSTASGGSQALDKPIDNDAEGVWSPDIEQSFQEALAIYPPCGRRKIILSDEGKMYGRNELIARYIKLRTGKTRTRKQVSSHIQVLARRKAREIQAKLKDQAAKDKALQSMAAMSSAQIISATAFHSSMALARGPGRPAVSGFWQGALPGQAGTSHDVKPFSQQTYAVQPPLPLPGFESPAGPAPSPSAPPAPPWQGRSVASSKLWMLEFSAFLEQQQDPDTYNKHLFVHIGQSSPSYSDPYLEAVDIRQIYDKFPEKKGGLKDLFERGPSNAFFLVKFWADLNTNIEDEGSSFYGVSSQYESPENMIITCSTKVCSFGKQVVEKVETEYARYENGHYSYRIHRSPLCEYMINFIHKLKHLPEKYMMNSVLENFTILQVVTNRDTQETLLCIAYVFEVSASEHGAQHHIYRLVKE
Procedure: (§1) Example B: Thermal Shift Assay
(§2) 1) Prepare a fresh dilution of Protein Thermal Shift™ Dye (Applied Biosystems, 1000×) to 8× by […].
(§3) 2) To ensure the same DMSO concentration, the compounds were diluted as follows: Prepare 10 mM stock solution of compounds;
(§4) The final DMSO concentration was 0.1%
(§5) 10 μM: Diluting stock solution to 100 μM by using PBS.
(§6) 1 μM: Diluting stock solution to 1 mM by using DMSO, then dilute to 10 μM by using PBS.
TEAD4: the stock concentration was 2.3 mg/ml; the final concentration was 0.1 mg/ml.
(§7) 4) Place the appropriate reaction plate or tubes on ice, then prepare the protein melt reactions:
(§8) 5) Pipet each reaction up and down 10 times to mix well.
(§9) 6) Seal the plate with MicroAmp™ Optical Adhesive Film, spin it at 1000 rpm for 1 minute.
(§10) 7) Set up and run on the qPCR instrument.
(§11) Using thermal Shift™ Software v1.3 to analysis.

[3] = biological target: TEAD1 (Homo sapiens, UniProt P28347); assay: Thermal shift assay TEAD1; assay type: binding
Sequence of TEAD1 (P28347 whole entry, species assumed): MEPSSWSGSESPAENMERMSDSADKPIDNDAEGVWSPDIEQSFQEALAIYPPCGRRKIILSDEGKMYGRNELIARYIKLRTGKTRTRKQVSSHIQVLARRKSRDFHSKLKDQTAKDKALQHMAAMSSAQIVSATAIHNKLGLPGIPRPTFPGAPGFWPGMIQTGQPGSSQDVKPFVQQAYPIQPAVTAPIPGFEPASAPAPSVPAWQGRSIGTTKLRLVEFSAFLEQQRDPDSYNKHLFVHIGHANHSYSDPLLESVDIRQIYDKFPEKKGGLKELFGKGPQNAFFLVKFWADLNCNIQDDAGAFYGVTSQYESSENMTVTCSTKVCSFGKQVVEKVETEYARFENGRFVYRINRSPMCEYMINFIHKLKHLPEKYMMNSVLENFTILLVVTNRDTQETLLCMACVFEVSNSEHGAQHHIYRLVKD
Procedure: as §1, §2, §3, §4, §5, §6
(§12) TEAD1: the stock concentration was 2.9 mg/ml; the final concentration was 0.2 mg/ml. TEAD2: the stock concentration was 1.8 mg/ml; the final concentration was 0.08 mg/ml.
as §7, §8, §9, §10, §11

[4] = biological target: TEAD2 (Homo sapiens, UniProt Q15562); assay: Thermal shift assay TEAD2; assay type: binding
Sequence of TEAD2 (Q15562 whole entry, species assumed): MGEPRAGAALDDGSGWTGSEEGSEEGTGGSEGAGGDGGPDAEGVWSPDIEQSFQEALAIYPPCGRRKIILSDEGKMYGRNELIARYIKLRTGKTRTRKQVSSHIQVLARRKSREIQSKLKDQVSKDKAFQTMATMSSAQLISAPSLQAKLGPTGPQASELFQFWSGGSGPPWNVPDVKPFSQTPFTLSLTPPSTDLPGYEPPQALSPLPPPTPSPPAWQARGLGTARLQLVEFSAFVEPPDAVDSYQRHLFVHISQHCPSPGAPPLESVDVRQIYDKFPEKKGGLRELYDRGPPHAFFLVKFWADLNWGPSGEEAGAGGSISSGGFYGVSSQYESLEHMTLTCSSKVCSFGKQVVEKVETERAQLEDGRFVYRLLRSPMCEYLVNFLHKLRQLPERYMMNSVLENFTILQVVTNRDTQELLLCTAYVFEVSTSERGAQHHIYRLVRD
Procedure: as §1, §2, §3, §4, §5, §6, §12, §7, §8, §9, §10, §11

[5] = biological target: TEAD3 (Homo sapiens, UniProt Q99594); assay: Thermal shift assay TEAD3; assay type: binding
Sequence of TEAD3 (Q99594 whole entry, species assumed): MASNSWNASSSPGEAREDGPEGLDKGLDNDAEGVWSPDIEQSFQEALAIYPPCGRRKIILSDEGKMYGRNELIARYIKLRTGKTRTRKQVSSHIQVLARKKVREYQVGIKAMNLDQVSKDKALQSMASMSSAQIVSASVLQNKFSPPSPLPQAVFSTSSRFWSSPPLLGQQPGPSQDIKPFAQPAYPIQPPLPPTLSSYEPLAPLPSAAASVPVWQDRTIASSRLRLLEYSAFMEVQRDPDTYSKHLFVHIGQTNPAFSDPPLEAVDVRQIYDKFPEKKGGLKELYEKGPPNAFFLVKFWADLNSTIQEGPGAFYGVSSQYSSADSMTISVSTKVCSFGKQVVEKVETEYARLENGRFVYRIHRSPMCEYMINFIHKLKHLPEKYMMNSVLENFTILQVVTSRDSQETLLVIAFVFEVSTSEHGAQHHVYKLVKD
Procedure: as §1, §2, §3, §4, §5, §6
TEAD3: the stock concentration was 2.4 mg/ml; the final concentration was 0.1 mg/ml.
as §7, §8, §9, §10, §11

Compound | IC50 ([1]; Homo sapiens, NCI-H226, 168 h) | TEAD4 ΔTm [2] | TEAD1 ΔTm [3] | TEAD2 ΔTm [4] | TEAD3 ΔTm [5] | IC50 [1]
CNS(=O)(=O)[C@@H]1CC1c1cc(Oc2ccc(C(F)(F)F)cc2)cc2cn(C)nc12 (mixture of isomers) [Example 51] | 1000 to 30000 nM | 9.1 °C | 7.5 °C | 9.7 °C | 10.6 °C | –
CNC(=O)[C@@H]1C[C@H]1c1cc(-c2ccc(C(F)(F)F)cc2)cc2c1cnn2C(F)F (racemic) [Example 32] | 100 to 500 nM | 1.3 °C | 2.1 °C | 0.9 °C | 0.2 °C | –
Cn1ncc2c(C3C[C@H]3C(=O)O)cc(-c3ccc(C(F)(F)F)cc3)cc21 (mixture of isomers) [Example 7] | – | 7.2 °C | 5.7 °C | 5.7 °C | 2 °C | 100 to 500 nM
Cn1cc2cc(Oc3ccc(C(F)(F)F)cc3)cc([C@@H]3C[C@H]3C(=O)N3CCO[C@@H](CO)C3)c2n1 (single isomer, unassigned) [Example 62] | < 100 nM | 7.7 °C | 7.4 °C | 10.6 °C | 1.2 °C | –
Cn1ncc2c([C@@H]3C[C@H]3C(=O)N3CC(O)C3)cc(-c3ccc(C(F)(F)F)cc3)cc21 (racemic) [Example 31] | 100 to 500 nM | 2.8 °C | 3 °C | 2.7 °C | 0 °C | –
CNC(=O)[C@@H]1CC1c1cc(OCc2ccc(C(F)(F)F)cc2)cc2c1cnn2C (mixture of isomers) [Example 37] | 1000 to 30000 nM | 0.1 °C | 0.2 °C | 0.9 °C | 0.1 °C | –
C=C(CS(=O)(=O)NC)c1cc(-c2ccc(C(F)(F)F)cc2)cc2c1cnn2C [Example 43] | 1000 to 30000 nM | – | – | – | – | –
Cn1cc2cc(Oc3ccc(C(F)(F)F)cc3)cc([C@@H]3C[C@H]3C(=O)N3CC4CC(C3)N4)c2n1 (single isomer, unassigned) [Example 123] | < 100 nM | 9.2 °C | 7.7 °C | 9.1 °C | 1.8 °C | –
Cn1ncc2c(C3C[C@H]3C(=O)O)cc(OCc3ccc(C(F)(F)F)cc3)cc21 (mixture of isomers) [Example 19] | 1000 to 30000 nM | 1.8 °C | 1.9 °C | 3.4 °C | 0.9 °C | –
Cn1ncc2c([C@@H]3C[C@H]3C(=O)NCCO)cc(-c3ccc(C(F)(F)F)cc3)cc21 (racemic) [Example 29] | 500 to 1000 nM | – | – | – | – | –
Cn1cc2cc(N3CCC4(CCCC4)CC3)cc(C3C[C@H]3C(=O)N3C[C@H](O)[C@@H](O)C3)c2n1 (single isomer, unassigned) [Example 86] | 1000 to 30000 nM | 2.6 °C | 2.6 °C | 2.7 °C | 0.2 °C | –
CC(NC(=O)[C@@H]1C[C@H]1c1cc(-c2ccc(C(F)(F)F)cc2)cc2c1cnn2C)c1ccccn1 (mixture of isomers) [Example 28] | 100 to 500 nM | 2.4 °C | 3.7 °C | 0.5 °C | 0.5 °C | –
CNC(=O)[C@@H]1CC1c1cc(Oc2ccc(C(F)(F)F)cc2)cc2c1cnn2C (mixture of isomers) [Example 36] | < 100 nM | 4.3 °C | 6.8 °C | 12.9 °C | 4.6 °C | –
CNS(=O)(=O)[C@@H]1C[C@H]1c1cc(Oc2ccc(C(F)(F)F)cc2)cc2c1NCCC2 (racemic) [Example 146] | 100 to 500 nM | 6.7 °C | 5.5 °C | 12.0 °C | 1.0 °C | –
CNC(=O)[C@@H]1CC1c1cc(-c2ccc(OC(F)(F)F)cc2)cc2cn(C)nc12 (mixture of isomers) [Example 33] | < 100 nM | 6.5 °C | 4 °C | 6.7 °C | 0.6 °C | –
Cn1cc2cc(Oc3ccc(C(F)(F)F)cc3)cc([C@H]3C[C@@H]3C(=O)N[C@@H](CO)c3ccccn3)c2n1 (single isomer, unassigned) [Example 59a] | 100 to 500 nM | 7.9 °C | 6.9 °C | 4.7 °C | 0.4 °C | –
Cn1ncc2c(C3C[C@H]3C(=O)O)cc(-c3ccc(C(F)(F)F)cc3)cc21 (mixture of isomers) [Example 8] | – | – | – | – | – | 1000 to 30000 nM
O=C(O)[C@@H]1CC1c1cc(-c2ccc(C(F)(F)F)cc2)cc2[nH]ncc12 (mixture of isomers) [Example 5] | 1000 to 30000 nM | – | – | – | – | –
C[C@H](C#N)NC(=O)[C@@H]1C[C@H]1c1cc(Oc2ccc(C(F)(F)F)cc2)cc2cn(C)nc12 (single isomer, unassigned) [Example 68] | < 100 nM | – | – | – | – | –
Cc1cn2cc(Oc3ccc(C(F)(F)F)cc3)cc(C3C[C@H]3C(=O)N3CC(O)C3)c2n1 (single isomer, unassigned) [Example 85a] | 1000 to 30000 nM | – | – | – | – | –
Cn1cc2cc(Oc3ccc(C(F)(F)F)cc3)cc([C@@H]3C[C@H]3C(=O)N3CC(O)C3)c2n1 (single isomer, unassigned) [Example 58a] | 1000 to 30000 nM | – | – | – | – | –
Cn1ncc2cc(-c3ccc(C(F)(F)F)cc3)cc(C3C[C@H]3C(=O)O)c21 (mixture of isomers) [Example 3] | 1000 to 30000 nM | – | – | – | – | –
O=C(O)[C@@H]1CC1c1cc(-c2ccc(C(F)(F)F)cc2)cc2cn[nH]c12 (mixture of isomers) [Example 1] | 1000 to 30000 nM | – | – | – | – | –
Cn1cc2c(C3C[C@H]3C(=O)O)cc(-c3ccc(C(F)(F)F)cc3)cc2n1 (mixture of isomers) [Example 6] | 100 to 500 nM | – | – | – | – | –
CN1CCC2(CN(C(=O)[C@@H]3CC3c3cc(Oc4ccc(C(F)(F)F)cc4)cc4cn(C)nc34)C2)C1=O (single isomer, unassigned) [Example 115] | – | 3.5 °C | 4.2 °C | 3.5 °C | 1.3 °C | –
Cn1cc2cc(Oc3ccc(C(F)(F)F)cc3)cc([C@@H]3C[C@H]3C(=O)N3CCC34CC(O)C4)c2n1 (single isomer, unassigned) [Example 136] | – | 10.3 °C | 7.1 °C | 12.4 °C | 1.7 °C | –
Cn1cc2nc(Oc3ccc(C(F)(F)F)cc3)cc([C@@H]3C[C@H]3C(=O)N3C[C@H]4C[C@@H]3CO4)c2n1 (single isomer, unassigned) [Example 119] | – | 4.7 °C | 4.2 °C | 6.1 °C | 1.6 °C | –
Cn1cc2cc(O[C@H]3CC[C@@H](C(F)(F)F)CC3)cc([C@@H]3C[C@H]3C(=O)N3CC(O)C3)c2n1 (single isomer, unassigned) [Example 87a] | – | 6.8 °C | 4.9 °C | 10.1 °C | 1.0 °C | –
